Measurements as given in US20250134855A1, “CO[…] AND METHODS OF USING SAME” (LYKOS THERAPEUTICS, INC., priority 2022, published 2025).
Like-named read-outs stand apart in the source and are kept apart here.

Experiments:
[1] = Study MPKF: plasma pharmacokinetics of MDMA and MDA, single 120 mg MDMA·HCl, fasted/fed; assay type: in vivo, human; settings: for Tmax: median; for concentration at 0.5 h: .5 h
Excerpt: The MPKF was a Phase 1, open-label, randomized sequence, multi-dose, 2-period crossover food effect study in 16 healthy individuals. The MPKF study evaluated plasma concentrations of both MDMA and the active metabolite 3,4-methylenedioxyamphetamine (MDA). Summary PK Parameters of the preliminary data was based on interim analysis are presented in Table 12 Table 12 Table 12, and Table 13 Table 13 Table 13 for MDMA and MDA, respectively.
Participants were randomized to receive 1 of 2 conditions before the other: • Fasted Treatment: at least 10 hours of fasting followed by administration of MDMA HCl with 240 mL water. • Fed Treatment: at least 10 hours of fasting followed by a high-fat (approximately 50% of total caloric content of the meal) and high-calorie (approximately 800 to 1000 calories) meal was consumed within 30 minutes prior to IMP administration.
Participants remained at the clinical research unit (CRU) for each Dosing Session from the time of check-in on the night before dosing until discharge 48 hours after dosing for collection of serial blood samples for PK analysis and safety monitoring. IMP was administered on Day 1 following the treatment sequence to which the participant was randomized. An additional outpatient visit occurred 72 hours after dosing to collect a final PK sample, commensurate with the expected PK profiles of MDMA and MDA. Safety assessments were also performed at this visit.
The washout period between Dosing Sessions was at least 14 days. If a participant experienced emesis within 4 hours of administration, they were to be withdrawn from the study and replaced with a new participant. An End of Study Visit was performed 2 to 10 days after the completion of the final Dosing Session 72-hour follow-up. An informal interim analysis was planned to be conducted after at least 5 participants completed at least 1 Dosing Session to examine PK variability.
The API was a white crystalline powder of pharmaceutical quality, made according to current Good Manufacturing Practices (cGMP) for human use.
Participants: Sixteen healthy individuals were recruited for the study.
Intervention: The study was conducted as a Phase 1, open-label, randomized sequence, multi-dose, 2-period crossover food effect study. Each participant received multiple doses of MDMA, and plasma concentrations of both MDMA and the active metabolite MDA were measured.
Sample Collection: Blood samples were collected at various time points up to 72 hours after dosing. The samples were analyzed using validated liquid chromatography-tandem mass spectrometry (LC-MS/MS) methods.
Data Analysis: The summary PK parameters were presented in Table 12 for MDMA and Table 13 for MDA. The data were analyzed using descriptive statistics, and the mean and standard deviation were calculated. The results were compared between the two periods and analyzed for food effects. Statistical analyses were performed using appropriate methods, such as analysis of variance (ANOVA) and paired t-tests. A p-value of less than 0.05 was considered statistically significant.

MDR1 = MDR1 (Homo sapiens, UniProt P08183); experiment: Transporter substrate assessment, MDR1
Chain of MDR1 (P08183 whole entry): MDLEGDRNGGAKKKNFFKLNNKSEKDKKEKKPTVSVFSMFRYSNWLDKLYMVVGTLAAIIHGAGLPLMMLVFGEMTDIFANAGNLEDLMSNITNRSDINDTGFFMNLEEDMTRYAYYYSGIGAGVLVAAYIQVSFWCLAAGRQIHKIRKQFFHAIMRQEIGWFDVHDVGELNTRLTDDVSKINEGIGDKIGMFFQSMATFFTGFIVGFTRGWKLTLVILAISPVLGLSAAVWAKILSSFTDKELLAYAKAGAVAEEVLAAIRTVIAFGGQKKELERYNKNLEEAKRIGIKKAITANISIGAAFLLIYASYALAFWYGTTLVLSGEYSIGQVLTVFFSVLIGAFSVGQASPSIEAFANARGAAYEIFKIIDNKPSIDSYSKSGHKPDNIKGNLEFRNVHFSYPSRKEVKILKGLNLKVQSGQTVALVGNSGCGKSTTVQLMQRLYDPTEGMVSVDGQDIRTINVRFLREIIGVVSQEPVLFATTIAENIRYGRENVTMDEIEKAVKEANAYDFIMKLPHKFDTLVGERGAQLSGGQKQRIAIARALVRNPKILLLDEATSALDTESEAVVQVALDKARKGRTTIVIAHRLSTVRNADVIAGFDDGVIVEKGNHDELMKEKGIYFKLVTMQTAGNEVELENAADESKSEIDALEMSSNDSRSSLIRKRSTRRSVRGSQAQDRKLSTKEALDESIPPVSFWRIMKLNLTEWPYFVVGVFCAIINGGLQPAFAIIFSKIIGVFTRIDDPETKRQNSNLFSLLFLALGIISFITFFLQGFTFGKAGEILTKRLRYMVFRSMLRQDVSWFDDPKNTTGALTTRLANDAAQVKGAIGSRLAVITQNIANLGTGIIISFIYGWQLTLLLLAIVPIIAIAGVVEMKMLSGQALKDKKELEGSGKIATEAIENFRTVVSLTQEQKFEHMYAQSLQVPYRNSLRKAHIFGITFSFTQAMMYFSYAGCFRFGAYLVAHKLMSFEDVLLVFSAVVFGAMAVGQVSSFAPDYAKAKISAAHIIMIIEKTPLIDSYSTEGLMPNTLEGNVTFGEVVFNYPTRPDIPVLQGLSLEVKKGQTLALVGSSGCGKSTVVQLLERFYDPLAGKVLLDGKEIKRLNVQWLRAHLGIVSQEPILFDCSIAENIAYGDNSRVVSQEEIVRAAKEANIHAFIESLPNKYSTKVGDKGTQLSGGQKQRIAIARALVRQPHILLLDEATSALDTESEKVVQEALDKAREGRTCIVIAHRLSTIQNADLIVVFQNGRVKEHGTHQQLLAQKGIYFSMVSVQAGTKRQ

rats = experiment: 28-day repeat-dose toxicity, weekly oral, rats; settings: any dose
[2] = tested on: bacterial reverse mutation assay (Ames test); experiment: In vitro bacterial reverse mutation assay (Ames test); assay type: cell-based; settings: with or without metabolic activation
Excerpt: MDMA was not mutagenic with or without metabolic activation in the in vitro bacterial reverse mutation assay (Ames test).

[3] = target: bile salt export pump (BSEP) (Homo sapiens, UniProt O95342); experiment: Transporter inhibition, BSEP
Chain of bile salt export pump (BSEP) (O95342 whole entry): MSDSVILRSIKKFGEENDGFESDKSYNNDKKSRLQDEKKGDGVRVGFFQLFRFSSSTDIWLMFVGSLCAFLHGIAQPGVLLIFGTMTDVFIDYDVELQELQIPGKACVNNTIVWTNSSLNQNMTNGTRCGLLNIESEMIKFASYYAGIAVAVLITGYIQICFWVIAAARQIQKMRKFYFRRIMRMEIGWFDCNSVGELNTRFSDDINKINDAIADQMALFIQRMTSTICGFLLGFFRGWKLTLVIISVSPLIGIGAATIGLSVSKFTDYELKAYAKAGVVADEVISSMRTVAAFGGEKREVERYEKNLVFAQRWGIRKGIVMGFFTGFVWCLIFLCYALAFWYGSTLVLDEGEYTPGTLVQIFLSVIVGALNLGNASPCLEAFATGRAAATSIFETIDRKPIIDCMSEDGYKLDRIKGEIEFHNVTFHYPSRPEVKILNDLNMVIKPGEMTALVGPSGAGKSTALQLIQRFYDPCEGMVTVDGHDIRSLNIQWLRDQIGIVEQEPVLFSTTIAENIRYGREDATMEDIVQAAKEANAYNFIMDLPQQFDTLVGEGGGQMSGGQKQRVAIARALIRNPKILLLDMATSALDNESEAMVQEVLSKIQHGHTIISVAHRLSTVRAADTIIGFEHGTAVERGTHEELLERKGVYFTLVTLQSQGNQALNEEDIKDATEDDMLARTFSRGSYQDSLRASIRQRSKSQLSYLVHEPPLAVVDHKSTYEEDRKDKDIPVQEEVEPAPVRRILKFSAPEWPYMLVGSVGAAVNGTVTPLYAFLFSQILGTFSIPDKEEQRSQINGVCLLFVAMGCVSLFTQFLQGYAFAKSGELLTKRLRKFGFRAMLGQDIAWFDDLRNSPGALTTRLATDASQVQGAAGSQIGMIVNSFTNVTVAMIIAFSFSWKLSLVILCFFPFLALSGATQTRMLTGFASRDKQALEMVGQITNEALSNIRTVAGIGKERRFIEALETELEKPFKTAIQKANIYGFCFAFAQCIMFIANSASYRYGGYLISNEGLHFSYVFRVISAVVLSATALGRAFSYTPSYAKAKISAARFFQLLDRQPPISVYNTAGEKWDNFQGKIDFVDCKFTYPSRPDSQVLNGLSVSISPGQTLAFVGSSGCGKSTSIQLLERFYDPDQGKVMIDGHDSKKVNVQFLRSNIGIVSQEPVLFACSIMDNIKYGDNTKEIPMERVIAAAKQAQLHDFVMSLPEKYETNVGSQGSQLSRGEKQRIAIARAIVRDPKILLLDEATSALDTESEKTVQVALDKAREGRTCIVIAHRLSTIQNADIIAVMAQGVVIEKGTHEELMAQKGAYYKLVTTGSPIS

[4] = single 100 mg dose of MDMA (Segura 2005); cited from earlier work
dogs = experiment: Daily 28-day repeated dose toxicology study, dogs; assay type: in vivo, dog; settings: 0, 3, 9, or 15 mg/kg/day, daily 28 days
Procedure: Based on negative in vivo and in vitro genotoxicity studies, the carcinogenic risk of MDMA·HCl is low. No tumors were reported after daily 28-day repeated dose toxicology studies of MDMA in rats (0, 10, 50, or 100 mg/kg/day) or dogs (0, 3, 9, or 15 mg/kg/day).

OATP1B1 = OATP1B1 (Homo sapiens, UniProt Q9Y6L6); experiment: Transporter inhibition, OATP1B1
Chain of OATP1B1 (Q9Y6L6 whole entry): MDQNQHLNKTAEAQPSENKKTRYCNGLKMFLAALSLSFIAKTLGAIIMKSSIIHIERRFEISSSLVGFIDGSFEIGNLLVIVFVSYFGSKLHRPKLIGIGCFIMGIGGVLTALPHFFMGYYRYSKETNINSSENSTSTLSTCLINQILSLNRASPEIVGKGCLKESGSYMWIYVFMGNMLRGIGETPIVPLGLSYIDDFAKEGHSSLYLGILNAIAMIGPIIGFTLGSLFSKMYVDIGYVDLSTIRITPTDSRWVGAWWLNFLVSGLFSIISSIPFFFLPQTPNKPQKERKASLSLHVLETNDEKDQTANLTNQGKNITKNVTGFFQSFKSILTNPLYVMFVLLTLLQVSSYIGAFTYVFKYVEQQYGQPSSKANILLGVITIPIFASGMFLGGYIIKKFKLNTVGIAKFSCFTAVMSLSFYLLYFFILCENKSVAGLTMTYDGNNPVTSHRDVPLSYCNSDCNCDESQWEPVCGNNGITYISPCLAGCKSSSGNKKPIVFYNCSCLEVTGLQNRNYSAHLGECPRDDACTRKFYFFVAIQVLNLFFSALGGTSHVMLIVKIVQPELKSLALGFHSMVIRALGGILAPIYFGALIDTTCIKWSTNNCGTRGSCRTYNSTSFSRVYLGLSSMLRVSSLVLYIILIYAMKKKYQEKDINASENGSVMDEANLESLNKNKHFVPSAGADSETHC

[5] = Fasted N = 15, 120 mg MDMA·HCl, preliminary
[6] = Fasted N = 15, 120 mg MDMA·HCl, preliminary, arithmetic mean
[7] = Fed N = 11, 120 mg MDMA·HCl, preliminary
[8] = Fed N = 11, 120 mg MDMA·HCl, preliminary, arithmetic mean
[9] = human, plasma, oral, 120 mg, fasted treatment group, read-out: PK plasma concentration, Geom. Mean
[10] = human, plasma, oral, 120 mg, fasted treatment group, read-out: PK plasma concentration, Mean
[11] = human, plasma, oral, 120 mg, fasted treatment group, read-out: PK plasma concentration, Median
[12] = human, plasma, oral, 120 mg, fed treatment group, read-out: PK plasma concentration, Geom. Mean
[13] = human, plasma, oral, 120 mg, fed treatment group, read-out: PK plasma concentration, Mean
[14] = human, plasma, oral, 120 mg, fed treatment group, read-out: PK plasma concentration, Median

## CNC(C)Cc1ccc2c(c1)OCO2 (stereo not shown) [MDMA, 3,4-methylenedioxymethamphetamine]
[1]; 8 intermediate, 8 normal metabolizers
  higher plasma PK values in intermediate relative to normal CYP2D6 metabolizers: approximately 26%
[1]; Fasted
  Cmax, Geometric LSM: 238 ng/mL
[1]; [5]
  Tlag: 0.6 h
  Tmax: 2 h
[1]; [6]
  CL/F: 29.5 L/h
  Cmax: 238 ng/mL
[1]; Fed
  AUC0-inf, Geometric LSM: 3357 ng·h/mL
  Cmax, Geometric LSM: 229 ng/mL
[1]; [7]
  Tlag: 0.7 h
  Tmax: 4 h
[1]; [8]
  AUC(0-inf): 3318 ng·h/mL
  CL/F: 30.1 L/h
  Cmax: 227 ng/mL
[1]; both sexes, human, plasma, oral, single 120 mg dose of MDMA·HCl, fasting healthy males and females, read-out: Cmax
  Cmax: 261 ng/mL
[1]; both sexes, human, plasma, po, single 120 mg dose of MDMA·HCl, fasting healthy males and females, read-out: Cmax
  Cmax: 261 ng/mL
[1]; fed vs fasted
  AUC0-72, Geometric Mean Ratio: 0.99
  AUC0-inf, Geometric Mean Ratio: 0.99
  AUC0-t, Geometric Mean Ratio: 1.00
  Cmax, Geometric Mean Ratio: 0.97
[1]; higher than dose proportional increases, auto-inhibition of CYP2D6
  dose proportionality of pharmacokinetics: non-linear
[1]; human, plasma, oral, 120 mg, Fasted, read-out: AUC0-72, Geometric LSM
  AUC(0-t): 3360 ng·h/mL
[1]; human, plasma, oral, 120 mg, Fasted, read-out: AUC0-inf, Geometric LSM
  AUC(0-inf): 3380 ng·h/mL
[1]; human, plasma, oral, 120 mg, Fasted, read-out: AUC0-t, Geometric LSM
  AUC(0-t): 3120 ng·h/mL
[1]; human, plasma, oral, 120 mg, Fed, read-out: AUC0-72, Geometric LSM
  AUC(0-t): 3340 ng·h/mL
[1]; human, plasma, oral, 120 mg, Fed, read-out: AUC0-t, Geometric LSM
  AUC(0-t): 3110 ng·h/mL
[1]; human, plasma, oral, 120 mg, both fed and fasted groups, read-out: mean elimination half-life
  half-life: 8 to 9 h
[1]; [9]
  concentration at 1 h: 111 ng/mL
  concentration at 2 h: 186 ng/mL
  concentration at 4 h: 219 ng/mL
  concentration at 6 h: 188 ng/mL
  concentration at 8 h: 160 ng/mL
  concentration at 12 h: 111 ng/mL
  concentration at 24 h: 44.2 ng/mL
  concentration at 48 h: 12.3 ng/mL
  concentration at 72 h: 6.25 ng/mL
  concentration at 0.5 h: 39.3 ng/mL
[1]; [10]
  concentration at 1 h: 111 ng/mL
  concentration at 2 h: 210 ng/mL
  concentration at 4 h: 225 ng/mL
  concentration at 6 h: 193 ng/mL
  concentration at 8 h: 166 ng/mL
  concentration at 12 h: 118 ng/mL
  concentration at 24 h: 50.1 ng/mL
  concentration at 48 h: 7.61 ng/mL
  concentration at 72 h: 0.417 ng/mL
  concentration at 0.5 h: 23.1 ng/mL
[1]; [11]
  concentration at 1 h: 124 ng/mL
  concentration at 2 h: 211 ng/mL
  concentration at 4 h: 218 ng/mL
  concentration at 6 h: 199 ng/mL
  concentration at 8 h: 165 ng/mL
  concentration at 12 h: 120 ng/mL
  concentration at 24 h: 53.6 ng/mL
  concentration at 48 h: 6.5 ng/mL
  concentration at 72 h: 0 ng/mL
  concentration at 0.5 h: 0 ng/mL
[1]; [12]
  concentration at 1 h: 46.2 ng/mL
  concentration at 2 h: 118 ng/mL
  concentration at 4 h: 222 ng/mL
  concentration at 6 h: 208 ng/mL
  concentration at 8 h: 173 ng/mL
  concentration at 12 h: 120 ng/mL
  concentration at 24 h: 42 ng/mL
  concentration at 48 h: 14.2 ng/mL
  concentration at 72 h: 11.3 ng/mL
  concentration at 0.5 h: 18.5 ng/mL
[1]; [13]
  concentration at 1 h: 59.8 ng/mL
  concentration at 2 h: 129 ng/mL
  concentration at 4 h: 228 ng/mL
  concentration at 6 h: 215 ng/mL
  concentration at 8 h: 181 ng/mL
  concentration at 12 h: 129 ng/mL
  concentration at 24 h: 50.5 ng/mL
  concentration at 48 h: 7.41 ng/mL
  concentration at 72 h: 0.81 ng/mL
  concentration at 0.5 h: 10.2 ng/mL
[1]; [14]
  concentration at 1 h: 47.4 ng/mL
  concentration at 2 h: 132 ng/mL
  concentration at 4 h: 224 ng/mL
  concentration at 6 h: 208 ng/mL
  concentration at 8 h: 180 ng/mL
  concentration at 12 h: 132 ng/mL
  concentration at 24 h: 41.4 ng/mL
  concentration at 48 h: 0 ng/mL
  concentration at 72 h: 0 ng/mL
  concentration at 0.5 h: 4.12 ng/mL
[1]; human, plasma, po, 120 mg, Fasted N = 15, 120 mg MDMA·HCl, preliminary, arithmetic mean
  Vd/F: 372 L
[1]; human, plasma, po, 120 mg, Fasted N = 15, 120 mg MDMA·HCl, preliminary, arithmetic mean, read-out: AUC0-72
  AUC(0-t): 3370 ng·h/mL
[1]; human, plasma, po, 120 mg, Fasted N = 15, 120 mg MDMA·HCl, preliminary, arithmetic mean, read-out: AUC0-inf
  AUC(0-inf): 3390 ng·h/mL
[1]; human, plasma, po, 120 mg, Fasted N = 15, 120 mg MDMA·HCl, preliminary, arithmetic mean, read-out: AUC0-t
  AUC(0-t): 3120 ng·h/mL
[1]; human, plasma, po, 120 mg, Fasted N = 15, 120 mg MDMA·HCl, preliminary, arithmetic mean, read-out: t1/2 (converted)
  half-life: 8.7 h
[1]; human, plasma, po, 120 mg, Fed N = 11, 120 mg MDMA·HCl, preliminary, arithmetic mean
  Vd/F: 349 L
[1]; human, plasma, po, 120 mg, Fed N = 11, 120 mg MDMA·HCl, preliminary, arithmetic mean, read-out: AUC0-72
  AUC(0-t): 3300 ng·h/mL
[1]; human, plasma, po, 120 mg, Fed N = 11, 120 mg MDMA·HCl, preliminary, arithmetic mean, read-out: AUC0-t
  AUC(0-t): 3060 ng·h/mL
[1]; human, plasma, po, 120 mg, Fed N = 11, 120 mg MDMA·HCl, preliminary, arithmetic mean, read-out: t1/2 (converted)
  half-life: 8 h
[1]; human, plasma, po, 120 mg, single 120 mg dose of MDMA·HCl, fasting, read-out: AUC0-inf
  AUC(0-inf): 3890 ng·h/mL
[1]; human, plasma, po, 120 mg, single 120 mg dose of MDMA·HCl, fasting, read-out: t1/2 (converted)
  half-life: 9.1 h
[1]; human, plasma, po, single 120 mg dose of MDMA·HCl, fasting, read-out: Tmax
  Tmax: ≤ 2 h
[1]; single 120 mg MDMA HCl
  plasma concentrations and PK parameters (Cmax, AUC0-t, AUC0-inf, AUC0-72, AUC% ext), fed vs fasted: not significantly different
[1]; single 120 mg dose of MDMA·HCl, fasting
  Tmax: 2.00 h
[1]; single 120 mg dose, estimated from Cmax 261 ng/ml and 51% protein binding
  unbound maximum concentration (Cmax): 660 nM
MDR1
  substrate of MDR1: not a substrate
rats
  neurohistopathology of the brain: No morphologic changes
[2]
  mutagenicity, Ames test: not mutagenic
[3]
  inhibition of BSEP: not an inhibitor
[4]
  increase of AUC0-8 hr of paroxetine (20 mg): 3 fold
  increase of Cmax of paroxetine (20 mg): 2.5 fold
dogs
  tumors: No tumors
OATP1B1
  inhibition of OATP1B1: not an inhibitor
